Experimental data published in ChEMBL document CHEMBL1201862, “PubChem BioAssay data set” (2004).
Calls of active or inactive are those of the source.

Assays:
[1] = target: Sphingosine 1-phosphate receptor 4 (Homo sapiens, UniProt O95977); experiment: Fluorescence dose response cell-based high throughput screening assay for antagonists of the Sphingosine 1-Phosphate Receptor 4 (S1P4). [Related pubchem assays: 1524 (Confirmation in triplicates.), 1510 (Primary screen.)]; type: functional
[2] = target: Sphingosine 1-phosphate receptor 1 (Homo sapiens, UniProt P21453); type: functional;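 note: Tango beta-arrestin reporter U2OS cells stimulated with S1P near its EC80; inhibitor potency meaning antagonism of receptor activation by the natural agonist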
Sphingosine 1-phosphate receptor 1, sequence (P21453 whole entry): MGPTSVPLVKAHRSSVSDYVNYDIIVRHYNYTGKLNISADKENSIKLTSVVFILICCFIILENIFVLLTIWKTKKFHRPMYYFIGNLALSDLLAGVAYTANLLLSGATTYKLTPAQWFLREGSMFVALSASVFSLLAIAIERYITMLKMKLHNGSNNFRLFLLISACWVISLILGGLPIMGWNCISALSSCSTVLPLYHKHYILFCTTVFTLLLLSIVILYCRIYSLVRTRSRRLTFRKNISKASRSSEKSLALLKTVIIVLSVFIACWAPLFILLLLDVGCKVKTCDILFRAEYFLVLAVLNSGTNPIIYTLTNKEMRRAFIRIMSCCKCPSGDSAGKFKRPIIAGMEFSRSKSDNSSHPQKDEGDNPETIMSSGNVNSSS

[3] = target: T1, Neuropeptide Y receptor type 1 (Homo sapiens, UniProt P25929); experiment: NPY-Y1 receptor antagonist potency, dose response, cell-based (AID 1277); type: functional
T1 sequence (P25929 whole entry): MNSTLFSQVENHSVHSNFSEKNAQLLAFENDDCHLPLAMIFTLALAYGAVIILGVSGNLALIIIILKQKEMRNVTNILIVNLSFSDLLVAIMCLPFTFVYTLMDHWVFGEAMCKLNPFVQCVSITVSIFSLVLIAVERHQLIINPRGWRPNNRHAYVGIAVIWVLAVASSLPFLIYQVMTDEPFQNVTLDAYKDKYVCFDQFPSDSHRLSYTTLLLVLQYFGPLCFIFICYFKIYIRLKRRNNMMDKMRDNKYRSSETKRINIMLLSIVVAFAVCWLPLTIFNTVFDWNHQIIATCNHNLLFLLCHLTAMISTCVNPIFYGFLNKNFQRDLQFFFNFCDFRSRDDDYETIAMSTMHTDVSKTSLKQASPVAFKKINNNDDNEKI

[4] = target: T2, Neuropeptide Y receptor type 2 (Homo sapiens, UniProt P49146); experiment: NPY-Y2 antagonist potency, selectivity check, dose response, counter-screen for NPY-Y1 antagonist project, cell-based (AID 1278); type: functional
T2 sequence (P49146 whole entry): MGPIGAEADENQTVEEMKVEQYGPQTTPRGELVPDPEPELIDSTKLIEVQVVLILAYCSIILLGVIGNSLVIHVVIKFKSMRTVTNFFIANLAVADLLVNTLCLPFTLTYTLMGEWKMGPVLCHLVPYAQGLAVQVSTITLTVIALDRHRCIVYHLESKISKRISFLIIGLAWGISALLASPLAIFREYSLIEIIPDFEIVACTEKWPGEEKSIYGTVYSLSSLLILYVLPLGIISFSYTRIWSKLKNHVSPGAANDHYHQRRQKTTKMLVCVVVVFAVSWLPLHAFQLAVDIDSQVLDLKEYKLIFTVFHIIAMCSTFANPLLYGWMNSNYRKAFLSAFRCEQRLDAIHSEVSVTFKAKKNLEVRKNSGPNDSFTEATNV

[5] = HepG2 cell cytotoxicity, dose response, cytotoxicity control for Shn3 inhibitor project, CellTiter-Glo, cherry-picked (AID 624134); type: functional, cell-based
[6] = control 3'UTR Renilla luciferase suppression, dose response, counter-screen for Shn3 inhibitor project, cell-based, Clone20-Shn3RL, cherry-picked (AID 624133); type: functional
[7] = Shn3 3'UTR reporter inhibitors, dose response, cell-based, Clone20 osteoblasts, firefly luciferase, cherry-picked (AID 624132); type: functional;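 note: firefly luciferase luminescence from reporter carrying the Shn3 3'UTR in osteoblasts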
Estrogen receptor = target: T3, Estrogen receptor (Homo sapiens, UniProt P03372); experiment: potentiators of ERα–SRC-1 coactivator binding, dose response, biochemical, TR-FRET, ERα LBD (AID 737)
T3 sequence (P03372 whole entry): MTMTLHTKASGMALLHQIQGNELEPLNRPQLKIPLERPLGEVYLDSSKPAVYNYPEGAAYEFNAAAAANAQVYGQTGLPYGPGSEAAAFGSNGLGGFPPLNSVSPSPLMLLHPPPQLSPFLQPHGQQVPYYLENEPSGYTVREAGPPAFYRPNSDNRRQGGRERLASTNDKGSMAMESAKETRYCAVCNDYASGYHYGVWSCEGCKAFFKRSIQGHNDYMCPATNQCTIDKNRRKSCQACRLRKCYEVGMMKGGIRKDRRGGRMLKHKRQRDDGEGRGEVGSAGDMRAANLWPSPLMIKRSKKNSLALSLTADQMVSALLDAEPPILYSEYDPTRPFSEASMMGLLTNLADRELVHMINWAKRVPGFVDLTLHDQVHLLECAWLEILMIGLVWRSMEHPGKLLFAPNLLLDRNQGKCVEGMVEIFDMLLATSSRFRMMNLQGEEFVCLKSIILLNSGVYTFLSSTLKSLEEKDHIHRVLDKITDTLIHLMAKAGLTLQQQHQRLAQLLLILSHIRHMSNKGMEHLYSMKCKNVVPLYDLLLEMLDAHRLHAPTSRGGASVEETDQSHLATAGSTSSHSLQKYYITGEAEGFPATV

Sphingosine 1-phosphate receptor 4, sequence (O95977 whole entry): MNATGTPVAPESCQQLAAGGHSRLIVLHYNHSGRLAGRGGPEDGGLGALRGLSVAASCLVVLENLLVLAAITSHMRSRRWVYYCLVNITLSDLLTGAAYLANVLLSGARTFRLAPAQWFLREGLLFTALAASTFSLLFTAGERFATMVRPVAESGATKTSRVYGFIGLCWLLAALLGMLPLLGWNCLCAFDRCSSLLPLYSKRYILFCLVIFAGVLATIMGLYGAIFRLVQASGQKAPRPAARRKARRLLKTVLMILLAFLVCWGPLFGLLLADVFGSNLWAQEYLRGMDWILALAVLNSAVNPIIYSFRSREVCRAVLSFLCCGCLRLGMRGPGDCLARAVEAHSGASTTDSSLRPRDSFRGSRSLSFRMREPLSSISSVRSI

Question: Which results are given for `O=C1c2cccc3c([N+](=O)[O-])ccc(c23)C(=O)N1CC1CCCO1` (stereo not drawn)?
Answer: IC50 [1]: 1.3 µM (active); IC50 [2]: 3.72 µM (active)

Question: For `Cc1cccc(OCCNC(=O)c2ccc(Oc3ccc(C(F)(F)F)cc3[N+](=O)[O-])cc2)c1`, which IC50 [3] is on record?
Answer: Its IC50 is > 35 µM (not active).

Question: And the IC50 [4]?
Answer: Its IC50 is > 35 µM (not active).

Question: For `CCOC(=O)N1CCN(S(=O)(=O)c2ccc(C(=O)Nc3nc4ccc(F)cc4s3)cc2)CC1`, which AC50 [5] is on record?
Answer: Its AC50 is > 70 µM (inactive).

Question: And the AC50 [6]?
Answer: Its AC50 is 3.38 µM (active).

Question: And the AC50 [7]?
Answer: Its AC50 is 4.79 µM (active).

Question: And the EC50 (Estrogen receptor)?
Answer: The EC50 was 11.6 µM (active).
